{
  "source": "patent US20070293399A1",
  "about": "“SUBSTITUTED DIAMINO-1,3,5-TRIAZINES, PROCESSES FOR THEIR PREPARATION AND THEIR USE AS HERBICIDES AND CROP GROWTH REGULATORS” (Bayer CropScience AG, priority 2006, published 2007)",
  "key": {"[1]": {"tested_on": "Stellaria media, Lolium multiflorum, Amaranthus retroflexus, Sinapis alba, Avena sativa and Setaria viridis", "experiment": "Pre-emergence herbicidal action (greenhouse pot test)", "format": "in vivo", "conditions": "application rate of 1 kg or less of active substance per hectare; scored visually after 3 to 4 weeks in comparison to untreated controls", "excerpt": "Seeds or rhizome pieces of mono- and dicotyledonous weed plants were placed in sandy loam in plastic pots and covered with soil. The inventive compounds, which have been formulated in the form of wettable powders or emulsion concentrates, were then applied to the surface of the covering soil as an aqueous suspension or emulsion in different dosages with an application rate of from 600 to 800 l/ha of water (converted)."}, "[2]": {"tested_on": "Sinapis alba, Echinochloa crus-galli, Lolium multiflorum, Stellaria media, Cyperus iria, Amaranthus retroflexus, Setaria viridis, Avena sativa, Lamium …", "experiment": "Post-emergence herbicidal action (greenhouse pot test)", "format": "in vivo", "conditions": "application rate of 1 kg and less of active substance per hectare; treated at three-leaf stage; scored visually after approx. 3 to 4 weeks in comparison to untreated controls", "protocol": "Seeds or rhizome pieces of mono- and dicotyledonous weeds were placed in sandy loam in plastic pots, covered with soil and grown in a greenhouse under good growth conditions. Three weeks after the sowing, the test plants were treated at the three-leaf stage. The inventive compounds formulated as spray powders or as emulsion concentrates were sprayed onto the green plant parts in various dosages with an application rate of from 600 to 800 l/ha of water (converted). After the test plants had been left to stand in the greenhouse under optimal growth conditions for approx. 3 to 4 weeks, the action of the preparations was scored visually in comparison to untreated controls. The inventive compositions also had good post-emergence herbicidal activity against a wide spectrum of economically important gramineous and broadleaf weeds."}},
  "data": [
    {"smiles": "CCCCNC(=S)Nc1nc(N[C@H]2c3cc(C)ccc3C[C@@H]2C)nc([C@@H](C)F)n1", "note": "[Compound 2.132]", "values": [
      {"measurement": "herbicidal action against harmful plants in the pre-emergence method", "setting": "[1]", "value": "very good herbicidal action"},
      {"measurement": "herbicidal action against harmful plants in the post-emergence method", "setting": "[2]", "value": "very good herbicidal action"}
    ]},
    {"smiles": "CCNC(=S)Nc1nc(N[C@H]2c3cc(C)ccc3C[C@@H]2C)nc([C@@H](C)F)n1", "note": "[Compound 2.133]", "values": [
      {"measurement": "herbicidal action against harmful plants in the pre-emergence method", "setting": "[1]", "value": "very good herbicidal action"},
      {"measurement": "herbicidal action against harmful plants in the post-emergence method", "setting": "[2]", "value": "very good herbicidal action"}
    ]},
    {"smiles": "Cc1ccc2c(c1)[C@H](Nc1nc(NC(=S)NCCc3ccc(Cl)cc3)nc([C@@H](C)F)n1)[C@@H](C)C2", "note": "[Compound 2.134]", "values": [
      {"measurement": "herbicidal action against harmful plants in the pre-emergence method", "setting": "[1]", "value": "very good herbicidal action"},
      {"measurement": "herbicidal action against harmful plants in the post-emergence method", "setting": "[2]", "value": "very good herbicidal action"}
    ]},
    {"smiles": "Cc1ccc2c(c1)[C@H](Nc1nc(NC(=S)NCc3ccco3)nc([C@@H](C)F)n1)[C@@H](C)C2", "note": "[Compound 2.138]", "values": [
      {"measurement": "herbicidal action against harmful plants in the pre-emergence method", "setting": "[1]", "value": "very good herbicidal action"},
      {"measurement": "herbicidal action against harmful plants in the post-emergence method", "setting": "[2]", "value": "very good herbicidal action"}
    ]},
    {"smiles": "Cc1ccc2c(c1)[C@H](Nc1nc(NC(=S)NC3CCCCC3)nc([C@@H](C)F)n1)[C@@H](C)C2", "note": "[Compound 2.139]", "values": [
      {"measurement": "herbicidal action against harmful plants in the pre-emergence method", "setting": "[1]", "value": "very good herbicidal action"},
      {"measurement": "herbicidal action against harmful plants in the post-emergence method", "setting": "[2]", "value": "very good herbicidal action"}
    ]},
    {"smiles": "COc1cccc(NC(=O)Nc2nc(N[C@H]3c4cc(C)ccc4C[C@@H]3C)nc([C@@H](C)F)n2)c1", "note": "[Compound 2.140]", "values": [
      {"measurement": "herbicidal action against harmful plants in the pre-emergence method", "setting": "[1]", "value": "very good herbicidal action"},
      {"measurement": "herbicidal action against harmful plants in the post-emergence method", "setting": "[2]", "value": "very good herbicidal action"}
    ]},
    {"smiles": "CC(=O)Nc1nc(N[C@H]2c3cc(C)ccc3C[C@@H]2C)nc(C(F)F)n1", "note": "[Compound 2.149]", "values": [
      {"measurement": "herbicidal action against harmful plants in the pre-emergence method", "setting": "[1]", "value": "very good herbicidal action"},
      {"measurement": "herbicidal action against harmful plants in the post-emergence method", "setting": "[2]", "value": "very good herbicidal action"}
    ]},
    {"smiles": "CCC(=O)Nc1nc(N[C@H]2c3cc(C)ccc3C[C@@H]2C)nc(C(F)F)n1", "note": "[Compound 2.150]", "values": [
      {"measurement": "herbicidal action against harmful plants in the pre-emergence method", "setting": "[1]", "value": "very good herbicidal action"},
      {"measurement": "herbicidal action against harmful plants in the post-emergence method", "setting": "[2]", "value": "very good herbicidal action"}
    ]},
    {"smiles": "Cc1ccc2c(c1)[C@H](Nc1nc(NC(=O)C(C)(C)C)nc(C(F)F)n1)[C@@H](C)C2", "note": "[Compound 2.151]", "values": [
      {"measurement": "herbicidal action against harmful plants in the pre-emergence method", "setting": "[1]", "value": "very good herbicidal action"},
      {"measurement": "herbicidal action against harmful plants in the post-emergence method", "setting": "[2]", "value": "very good herbicidal action"}
    ]},
    {"smiles": "Cc1ccc2c(c1)[C@H](Nc1nc(N=CN(C)C)nc([C@@H](C)F)n1)[C@@H](C)C2", "note": "[Compound 2.153]", "values": [
      {"measurement": "herbicidal action against harmful plants in the pre-emergence method", "setting": "[1]", "value": "very good herbicidal action"},
      {"measurement": "herbicidal action against harmful plants in the post-emergence method", "setting": "[2]", "value": "very good herbicidal action"}
    ]},
    {"smiles": "C[C@@H](F)c1nc(N=CN(C)C)nc(N[C@@H]2CCCc3ccccc32)n1", "note": "[Compound 2.154]", "values": [
      {"measurement": "herbicidal action against harmful plants in the pre-emergence method", "setting": "[1]", "value": "very good herbicidal action"},
      {"measurement": "herbicidal action against harmful plants in the post-emergence method", "setting": "[2]", "value": "very good herbicidal action"}
    ]},
    {"smiles": "Cc1ccc2c(c1)[C@H](Nc1ncnc(N=CN(C)C)n1)[C@@H](C)C2", "note": "[Compound 2.155]", "values": [
      {"measurement": "herbicidal action against harmful plants in the pre-emergence method", "setting": "[1]", "value": "very good herbicidal action"},
      {"measurement": "herbicidal action against harmful plants in the post-emergence method", "setting": "[2]", "value": "very good herbicidal action"}
    ]},
    {"smiles": "CC(=Nc1nc(N[C@H]2c3cc(C)ccc3C[C@@H]2C)nc([C@@H](C)F)n1)N(C)C", "note": "[Compound 2.156]", "values": [
      {"measurement": "herbicidal action against harmful plants in the pre-emergence method", "setting": "[1]", "value": "very good herbicidal action"},
      {"measurement": "herbicidal action against harmful plants in the post-emergence method", "setting": "[2]", "value": "very good herbicidal action"}
    ]},
    {"smiles": "CC(=Nc1nc(N[C@@H]2CCCc3ccccc32)nc([C@@H](C)F)n1)N(C)C", "note": "[Compound 2.159, N′-{4-[(1R)-1-Fluoroethyl]-6-[(1R)-1,2,3,4-tetrahydronaphth-1-ylamino]-1,3,5-triazin2-yl}-N,N-dimethylethanimide amide]", "values": [
      {"measurement": "herbicidal action against harmful plants in the pre-emergence method", "setting": "[1]", "value": "very good herbicidal action"},
      {"measurement": "herbicidal action against harmful plants in the post-emergence method", "setting": "[2]", "value": "very good herbicidal action"}
    ]},
    {"smiles": "CC(=Nc1ncnc(N[C@H]2c3cc(C)ccc3C[C@@H]2C)n1)N(C)C", "note": "[Compound 2.160]", "values": [
      {"measurement": "herbicidal action against harmful plants in the pre-emergence method", "setting": "[1]", "value": "very good herbicidal action"},
      {"measurement": "herbicidal action against harmful plants in the post-emergence method", "setting": "[2]", "value": "very good herbicidal action"}
    ]},
    {"smiles": "Cc1ccc2c(c1)[C@H](Nc1nc(C)nc(N=CN(C)C)n1)[C@@H](C)C2", "note": "[Compound 2.170]", "values": [
      {"measurement": "herbicidal action against harmful plants in the pre-emergence method", "setting": "[1]", "value": "very good herbicidal action"},
      {"measurement": "herbicidal action against harmful plants in the post-emergence method", "setting": "[2]", "value": "very good herbicidal action"}
    ]},
    {"smiles": "C[C@@H]1Cc2ccccc2[C@@H]1Nc1nc(N=CN(C)C)nc(C(F)F)n1", "note": "[Compound 2.175]", "values": [
      {"measurement": "herbicidal action against harmful plants in the pre-emergence method", "setting": "[1]", "value": "very good herbicidal action"},
      {"measurement": "herbicidal action against harmful plants in the post-emergence method", "setting": "[2]", "value": "very good herbicidal action"}
    ]},
    {"smiles": "Cc1ccc2c(c1)[C@H](Nc1nc(N=CN(C)C)nc(C(F)F)n1)[C@H](C)C2", "note": "[Compound 2.176]", "values": [
      {"measurement": "herbicidal action against harmful plants in the pre-emergence method", "setting": "[1]", "value": "very good herbicidal action"},
      {"measurement": "herbicidal action against harmful plants in the post-emergence method", "setting": "[2]", "value": "very good herbicidal action"}
    ]},
    {"smiles": "CC(=Nc1nc(N[C@H]2c3cc(C)ccc3C[C@H]2C)nc(C(F)F)n1)N(C)C", "note": "[Compound 2.177]", "values": [
      {"measurement": "herbicidal action against harmful plants in the pre-emergence method", "setting": "[1]", "value": "very good herbicidal action"},
      {"measurement": "herbicidal action against harmful plants in the post-emergence method", "setting": "[2]", "value": "very good herbicidal action"}
    ]},
    {"smiles": "Cc1ccc2c(c1)[C@H](Nc1nc(N=CN3CCCCC3)nc(C(F)F)n1)[C@H](C)C2", "note": "[Compound 2.181]", "values": [
      {"measurement": "herbicidal action against harmful plants in the pre-emergence method", "setting": "[1]", "value": "very good herbicidal action"},
      {"measurement": "herbicidal action against harmful plants in the post-emergence method", "setting": "[2]", "value": "very good herbicidal action"}
    ]},
    {"smiles": "Cc1ccc2c(c1)[C@H](Nc1nc(C=O)nc(C(F)F)n1)[C@H](C)C2", "note": "[Compound 2.190]", "values": [
      {"measurement": "herbicidal action against harmful plants in the pre-emergence method", "setting": "[1]", "value": "very good herbicidal action"},
      {"measurement": "herbicidal action against harmful plants in the post-emergence method", "setting": "[2]", "value": "very good herbicidal action"}
    ]},
    {"smiles": "CCOC(C)=Nc1nc(N[C@H]2c3cc(C)ccc3C[C@H]2C)nc(C(F)F)n1", "note": "[Compound 2.191]", "values": [
      {"measurement": "herbicidal action against harmful plants in the pre-emergence method", "setting": "[1]", "value": "very good herbicidal action"},
      {"measurement": "herbicidal action against harmful plants in the post-emergence method", "setting": "[2]", "value": "very good herbicidal action"}
    ]},
    {"smiles": "C[C@@H](F)c1nc(C=O)nc(N[C@@H]2CCCc3ccccc32)n1", "note": "[Compound 2.193]", "values": [
      {"measurement": "herbicidal action against harmful plants in the pre-emergence method", "setting": "[1]", "value": "very good herbicidal action"},
      {"measurement": "herbicidal action against harmful plants in the post-emergence method", "setting": "[2]", "value": "very good herbicidal action"}
    ]},
    {"smiles": "Cc1ccc2c(c1)[C@H](Nc1ncnc(C=O)n1)[C@H](C)C2", "note": "[Compound 2.194]", "values": [
      {"measurement": "herbicidal action against harmful plants in the pre-emergence method", "setting": "[1]", "value": "very good herbicidal action"},
      {"measurement": "herbicidal action against harmful plants in the post-emergence method", "setting": "[2]", "value": "very good herbicidal action"}
    ]},
    {"smiles": "Cc1ccc2c(c1)[C@H](Nc1nc(C=O)nc([C@@H](C)F)n1)[C@H](C)C2", "note": "[Compound 2.195]", "values": [
      {"measurement": "herbicidal action against harmful plants in the pre-emergence method", "setting": "[1]", "value": "very good herbicidal action"},
      {"measurement": "herbicidal action against harmful plants in the post-emergence method", "setting": "[2]", "value": "very good herbicidal action"}
    ]}
  ]
}
